These results are taken from article PMC4917279 (Journal of Medicinal Chemistry, 2016).

Series [1] can be described thus: Metabolic stability in rat hepatocytes. Format: in vitro ADME. As to conditions: read-out: CL (CLblood) (converted). As to the method: Liver cells were distributed in Williams’ medium E containing 5% fetal calf serum (FCS) to glass vials at a density of 1.0 × 10^6 vital cells/mL. The test compound was added to a final concentration of 1 μM. During incubation, the hepatocyte suspensions were continuously shaken and aliquots were taken at 2, 8, 16, 30, 45, and 90 min, to which an equal volume of cold MeOH was immediately added. Samples were frozen at −20 °C overnight, then centrifuged (15 min, 3000 rpm), and the supernatant was analyzed with an Agilent 1200 HPLC system with LC-MS/MS detection. The half-life of a test compound was determined from the concentration–time plot. The intrinsic clearances were calculated from the half-life, together with additional parameters (liver blood flow, quantity of liver cells in vivo and in vitro).

Series [2] is described as follows: Caco2 drug permeability assay. Format: in vitro ADME. As to conditions: human, Caco-2, pH 7.2. The procedure:
Caco-2 cells (purchased from DSMZ Braunschweig, Germany) were seeded at a density of 4.5 × 10^4 cell per well on 24-well insert plates, 0.4 μm pore size, and grown for 15 days in DMEM medium supplemented with 10% fetal bovine serum, 1% GlutaMAX (100×, GIBCO), 100 μg/mL penicillin, 100 μg/mL streptomycin (GIBCO), and 1% nonessential amino acids (100×). Cells were maintained at 37 °C in a humified 5% CO2 atmosphere. Medium was changed every second to third day. Before running the permeation assay, the culture medium was replaced by an FCS-free Hepes-carbonate transport buffer (pH 7.2). For assessment of monolayer integrity, the transepithelial electrical resistance (TEER) was measured. Test compounds were dissolved in DMSO and added either to the apical or basolateral compartment in a final concentration of 2 μM. Before and after incubation at 37 °C, samples were taken from both compartments. Analysis of compound content was performed following precipitation with methanol and LC/MS/MS analysis. Permeability (Papp) was calculated in the apical to basolateral (A → B) and basolateral to apical (B → A) directions. The apparent permeability was calculated using following equation: [drawing 3] where Vr = volume of medium in the receiver chamber, P0 = measured peak area of the test drug in the donor chamber at t = 0, S = surface area of the monolayer, P2 = measured peak area of the test drug in the acceptor chamber after incubation for 2 h, and t = incubation time. The efflux ratio basolateral (B) to apical (A) was calculated by dividing Papp (B–A) by Papp (A–B). In addition, the compound recovery was calculated. Reference compounds were analyzed in parallel as assay controls. All samples were analyzed by LC/MS/MS.

For series [3], the target named is T1, SMYD2 (Homo sapiens, UniProt Q9NRG4). The series is described as follows: SMYD2 scintillation proximity assay (SPA). Type of series: biochemical. As to conditions: for BEI (SMYD2): Binding efficiency index: pIC50/MW × 1000. On the set-up: The SMYD2 full-length enzyme with an N-terminal 6xHis tag was expressed in Escherichia coli; made in house; host or cells: Escherichia coli. In general terms: SPA uses beads or plates that emit light when radiolabelled molecules are held near them.

The nature of series [4]: Integrity of the pyrazoline stereocenter (racemization). Format: physicochemical. As to conditions: aqueous solution at pH 7, mouse and human plasma at 37 °C. As to the method:
Compounds 4, 28, and 30–34 were separated into their enantiomers by preparative chiral HPLC or chiral supercritical fluid chromatography. For compounds 6 and 4, the integrity of the pyrazoline stereocenter was tested. The compounds were stable to racemization in aqueous solution at pH 7, as well as in mouse and human plasma at 37 °C, for at least 48 h. However, clean racemization was obtained under basic conditions and microwave irradiation (DBU, THF, 90 °C).

The target of series [5] is T1, SMYD2. The series is described as follows: Isothermal titration calorimetry (ITC). On the set-up: The SMYD2 full-length enzyme with an N-terminal 6xHis tag was expressed in Escherichia coli; made in house; host or cells: Escherichia coli. Type of series: binding. The procedure: Isothermal titration calorimetry (ITC) measurements were carried out using a MicroCal iTC200 system. In the experiments, compound (400 μM) was titrated into SMYD2 protein (67 μM) dissolved in 25 mM Tris pH 8.5, 50 mM NaCl, 0.0022% Pluronic F-127, and 2% DMSO at 25 °C. After an initial injection of 0.2 μL, which was not considered for data fitting, 10 injections of 4 μL each in 150 s intervals were performed. The stirring speed of the protein in the cell was 500 rpm. The protein concentration was determined from UV absorbance measurements at 280 nm. Data were evaluated using ORIGIN software, as supplied with the instrument.

The subject of series [6] is KYSE-150, U2OS, and A2780 cell lines. The series is described as follows: Caspase 3/7 activation assay. Format: cell-based. The conditions noted are these: 2 days pretreatment, then doxorubicin 24 h; KYSE-150, U2OS, A2780. The procedure:
Effects on apoptosis induction were measured with the Caspase-Glo 3/7 Assay System (Promega).

T1 sequence (Q9NRG4 whole entry): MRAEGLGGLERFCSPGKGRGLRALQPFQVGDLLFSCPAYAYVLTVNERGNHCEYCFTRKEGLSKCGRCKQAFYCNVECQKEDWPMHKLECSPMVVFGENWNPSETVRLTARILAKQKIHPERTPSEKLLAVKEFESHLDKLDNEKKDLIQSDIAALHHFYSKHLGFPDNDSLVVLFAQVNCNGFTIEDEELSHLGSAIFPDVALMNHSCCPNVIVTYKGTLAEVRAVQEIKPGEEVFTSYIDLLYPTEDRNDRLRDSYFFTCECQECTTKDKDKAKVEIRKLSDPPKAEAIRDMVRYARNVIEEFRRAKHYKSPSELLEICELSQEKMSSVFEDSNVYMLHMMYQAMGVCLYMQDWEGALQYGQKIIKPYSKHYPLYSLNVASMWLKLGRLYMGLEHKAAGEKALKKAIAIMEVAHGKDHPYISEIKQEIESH

On to `CCN(C(=O)CO)[C@H]1CN(/C(=N\C#N)Nc2cccc(OC(F)F)n2)N=C1c1ccc(Cl)c(Cl)c1` [(S)-32], for which the CLhep predicted at […], 1 µM in series [1] was 1.8 L/h/kg. In series [2], the Papp A→B (as a rule, the apparent permeability from the apical to the basolateral side of a cell layer) at 2 h, 2 µM was found to be 39 nm/s.

Regarding `CCN(C(=O)CO)C1CN(/C(=N\C#N)Nc2cccc(OC(F)F)c2)N=C1c1ccc(Br)cc1` (centres unmarked) [Compound 26, N-[3-(4-Bromophenyl)-1-{N′-cyano-N-[3-(difluoromethoxy)phenyl]carbamimidoyl}-4,5-dihydro-1H-pyrazol-4-yl]-N-ethyl-2-hydroxyacetamide], the “BEI (SMYD2)” value at SMYD2 [3] is listed as 11.1.

Regarding `CCN(C(=O)CN)C1CN(/C(=N\C#N)Nc2ccc(Cl)c(Cl)c2)N=C1c1ccc(Cl)cc1` (centres unmarked) [Compound 22], at SMYD2 [3], the “BEI (SMYD2)” value came to 11.3.

On to `CCN(C(=O)CO)C1CN(/C(=N\C#N)Nc2cccc(OC(F)F)c2)N=C1c1cc(C)c(Cl)c(C)c1` (centres unmarked) [Compound 27, N-[3-(4-Chloro-3,5-dimethylphenyl)-1-{N′-cyano-N-[3-(difluoromethoxy)phenyl]-carbamimidoyl}-4,5-dihydro-1H-pyrazol-4-yl]-N-ethyl-2-hydroxyacetamide], for which the “BEI (SMYD2)” value on SMYD2 [3] is 12.

For `CCN(C(=O)CO)C1CN(/C(=N\C#N)Nc2ccc3c(c2)OC(F)(F)O3)N=C1c1ccc(Cl)cc1` (centres unmarked) [Compound 13], the “BEI (SMYD2)” value at SMYD2 [3] was found to be 11.2.

As to `CCN(C(=O)CO)C1CN(/C(=N\C#N)Nc2cccc(OC(F)F)c2)N=C1c1ccc(Cl)c(Cl)c1` (centres unmarked) [Compound 4, N-[1-{N′-Cyano-N-[3-(difluoromethoxy)phenyl]carbamimidoyl}-3-(3,4-dichlorophenyl)-4,5-dihydro-1H-pyrazol-4-yl]-N-ethyl-2-hydroxyacetamide], the “BEI (SMYD2)” value at SMYD2 [3] stood at 13.5. Also, the “Stable to racemization for” value in series [4] is reported as “at least 48 h”.

For `CCN(C(=O)CO)C1CN(/C(=N\C#N)Nc2ccc(Cl)c(Cl)c2)N=C1c1ccc(Cl)cc1` (centres unmarked) [Compound 12], the “BEI (SMYD2)” value on SMYD2 [3] amounted to 11.1.

For `N#C/N=C(/Nc1cccc(OC(F)F)c1)N1CC(N2CNCC2=O)C(c2ccc(Cl)cc2)=N1` (centres unmarked) [Compound 24], the “BEI (SMYD2)” value on SMYD2 [3] turned out to be 11.

On to `CCN(C(=O)CO)C1CN(/C(=N\C#N)Nc2cccc(OC(F)F)c2)N=C1c1ccc(Cl)c(C)c1` (centres unmarked) [Compound 28, N-[3-(4-Chloro-3-methylphenyl)-1-{N′-cyano-N-[3-(difluoromethoxy)phenyl]carbamimidoyl}-4,5-dihydro-1H-pyrazol-4-yl]-N-ethyl-2-hydroxyacetamide], for which the “BEI (SMYD2)” value at SMYD2 [3] was 14.

Take `CCN(C(=O)CO)[C@H]1CN(/C(=N\C#N)Nc2cccc(OC(F)F)c2)N=C1c1ccc(Cl)c(C)c1` [(S)-28]: the CLhep predicted at […], 1 µM in series [1] is 2.8 L/h/kg. Also, in series [2], the Papp A→B at 2 h, 2 µM was 33 nm/s.

Regarding `CCN(C(=O)CO)[C@H]1CN(/C(=N\C#N)Nc2ccc(Cl)c(OC(F)F)c2)N=C1c1ccc(Cl)c(Cl)c1` [(S)-33], the CLhep predicted at […], 1 µM in series [1] was 1.4 L/h/kg. The molecule also came in with a Papp A→B at 2 h, 2 µM in series [2] of 10 nm/s.

As for `N#C/N=C(/Nc1cccc(OC(F)F)c1)N1CC(NC(=O)CO)C(c2ccc(Cl)cc2)=N1` (centres unmarked) [Compound 19], the “BEI (SMYD2)” value at SMYD2 [3] was 10.7.

`CCN(C(=O)CO)C1CN(/C(=N\C#N)Nc2ccc(OC(F)F)cc2)N=C1c1ccc(Cl)cc1` (centres unmarked) [Compound 14]: the “BEI (SMYD2)” value at SMYD2 [3] was 9.8.

On to `CCN(C(=O)CO)[C@H]1CN(/C(=N\C#N)Nc2cccc(OC)c2)N=C1c1ccc(Cl)c(Cl)c1` [(S)-31], for which the CLhep predicted at […], 1 µM in series [1] was 3.2 L/h/kg. In addition, the Papp A→B at 2 h, 2 µM in series [2] turned out to be 62 nm/s.

Turning to `CCN(C(=O)CO)C1CN(/C(=N\C#N)Nc2ccc(F)c(Cl)c2)N=C1c1ccc(Cl)cc1` (centres unmarked) [Compound 5], on SMYD2 [3], the “BEI (SMYD2)” value amounted to 12.1.

With `CCN(C(=O)CO)[C@H]1CN(/C(=N\C#N)Nc2cccc(OC(F)(F)F)c2)N=C1c1ccc(Cl)c(Cl)c1` [(S)-30], the CLhep predicted at […], 1 µM in series [1] was 1.6 L/h/kg. In addition, the Papp A→B at 2 h, 2 µM in series [2] was determined as 32 nm/s.

For `CCN(C(=O)CO)[C@H]1CN(/C(=N\C#N)Nc2cc(F)cc(OC(F)F)c2)N=C1c1ccc(Cl)c(Cl)c1` [(S)-34], in series [1], the CLhep predicted at […], 1 µM was 0.3 L/h/kg. In series [2], this molecule showed a Papp A→B at 2 h, 2 µM of 23 nm/s.

For the molecule `CCCN(C(=O)CO)C1CN(/C(=N\C#N)Nc2cccc(OC(F)F)c2)N=C1c1ccc(Cl)cc1` (centres unmarked) [Compound 20], the “BEI (SMYD2)” value at SMYD2 [3] is reported as 11.2.

Turning to `CCN(C(=O)CO)C1CN(/C(=N\C#N)Nc2cccc(OC(F)F)c2)N=C1c1ccc(Cl)cc1` (centres unmarked) [Compound 6], on SMYD2 [5], the “-TΔS” value is -8.778 kJ/mol, the ΔG was -35.76 kJ/mol and the ΔH is -26.96 kJ/mol. The “BEI (SMYD2)” value on SMYD2 [3] stood at 12.5. Besides, the “Stable to racemization for” value in series [4] is reported as “at least 48 h”.

For `CCN(C(=O)CO)C1CN(/C(=N\C#N)NCCC2CC2)N=C1c1ccc(Cl)cc1` (centres unmarked) [Compound 18], the “BEI (SMYD2)” value on SMYD2 [3] amounted to 12.2.

Turning to `CCN(C(=O)CO)C1CN(/C(=N\C#N)NCCCC(F)(F)F)N=C1c1ccc(Cl)cc1` (centres unmarked) [Compound 16], the “BEI (SMYD2)” value at SMYD2 [3] was 11.3.

`CCN(C(=O)CO)C1CN(/C(=N\C#N)Nc2cccc(OC(F)F)c2)N=C1c1ccccc1` (centres unmarked) [Compound 25, N-(1-{N′-Cyano-N-[3-(difluoromethoxy)phenyl]carbamimidoyl}-3-phenyl-4,5-dihydro-1H-pyrazol-4-yl)-N-ethyl-2-hydroxyacetamide]: the “Caspase 3/7 activation in combination with doxorubicin” value in series [6] is “not”. Besides, on SMYD2 [3] (SPA), the “SMYD2 IC50” value was “inactive”.

As for `CCN(C(=O)CO)C1CN(/C(=N\C#N)Nc2cccc(OC(F)F)c2)N=C1c1ccc2c(c1)OCO2` (centres unmarked) [Compound 29, N-[3-(1,3-Benzodioxol-5-yl)-1-{N′-cyano-N-[3-(difluoromethoxy)phenyl]carbamimidoyl}-4,5-dihydro-1H-pyrazol-4-yl]-N-ethyl-2-hydroxyacetamide], the “BEI (SMYD2)” value at SMYD2 [3] stood at 10.7.
